Measurements published in US20230323410A1, “BACTERIAL CELLS AND METHODS FOR PRODUCTION OF 2-FLUORO-CIS,CIS-MUCONATE” (priority 2020, published 2023).
“Also recorded” adds a separate entry of the source. Where two headings read alike, the source gives them in different places.

Legend:
[1] = tested on: XylS/Pm; assay type: cell-based, P. putida KT2440; details: for GFP expression from Pm relative to the one brought about by 1.0 mM 3-mBz: 5.0 mM inducer; for GFP expression under Pm(ML1-17) control relative to the expression provided by Pm: compound as inducer
[2] = tested on: P. knackmussii; test: Microtiter plate cultivation: growth with metabolites of the bioconversion; details: for growth rate as share of the μmax observed on only glucose: 15 mM
[3] = tested on: Pmuc10; test: as above; details: for Maximum growth rate μmax: Example 6 (improved method)
[4] = tested on: Pmuc3 pSEVA228; assay type: cell-based, Pseudomonas putida
[5] = tested on: BenR/Pben; assay type: cell-based, P. putida KT2440; details: for increase of induction compared to the uninduced system: 5 mM
[6] = tested on: CatR/Pcat; assay type: cell-based, P. putida KT2440
[7] = tested on: P. putida KT2440; details: for growth rate as share of the maximum rate on glucose: 20 mM
[8] = tested on: P. knackmussii; test: Shaken flask fermentation with 10 mM 2-FBz or 3-FBz; assay type: cell-based, Pseudomonas knackmussii; set-up: rate qp: unit not given here; details: for product formation rate qp: from 2-FBz; for rate qp: from 3-FBz
[9] = tested on: P. putida KT2440; test: as above; assay type: cell-based, Pseudomonas putida
[10] = tested on: msfGFP reporter gene under control of BCD10; assay type: cell-based, P. putida KT2440; details: 5 mM 3-FBz (inducible systems), 30 mM glucose, FIG. 6
[11] = Example 1, 30 mM as sole carbon source
[12] = Example 6 (improved method), 30 mM as sole carbon source
[13] = Example 1, 30 mM glucose, 10 mM additive
[14] = Example 1, 30 mM glucose, 15 mM additive
[15] = Example 1, 30 mM glucose, 20 mM additive
[16] = Example 6 (improved method), 30 mM glucose, 10 mM additive
[17] = Example 6 (improved method), 30 mM glucose, 15 mM additive
[18] = Example 6 (improved method), 30 mM glucose, 20 mM additive
[19] = Example 6 (improved method), 30 mM glucose, 1.0 mM additive
[20] = Example 6 (improved method), 30 mM glucose, 2.0 mM additive
[21] = Example 6 (improved method), 30 mM glucose, 5.0 mM additive
[22] = Example 1, 30 mM glucose, 5.0 mM additive
[23] = Example 1, 30 mM glucose, 0.5 mM additive
[24] = Example 1, 30 mM glucose, 1.0 mM additive
[25] = Example 1, 30 mM glucose, 2.0 mM additive
[26] = Example 6 (improved method), 30 mM glucose, 0.5 mM additive

Compound: O=C([O-])c1ccccc1.[K+] [K-benzoate, potassium benzoate]
- GFP expression from Pm relative to the one brought about by 1.0 mM 3-mBz [1]: 20%
- Maximum growth rate μmax [2, 11]: no growth
- Maximum growth rate μmax [2, 12]: no growth
- Maximum growth rate μmax ([3]; 30 mM as sole carbon source): 0.53 h⁻¹
- Maximum growth rate μmax ([4]; Example 1, 30 mM K-benzoate as carbon source, 0.5 mM 3-mBz): 0.16 h⁻¹
- Maximum growth rate μmax ([4]; Example 6 (improved method), 30 mM K-benzoate as carbon source, 0.5 mM 3-mBz): 0.16 h⁻¹
- increase in GFP expression over basal expression ([5]; 2.0 mM): No further increase
- increase of induction compared to the uninduced system [5]: 70%
- GFP fluorescence as compared to the induction by 3-FBz ([6]; 5 mM): 35%
- Maximum growth rate μmax [7, 11]: 0.37 h⁻¹
- Maximum growth rate μmax [7, 12]: 0.62 h⁻¹

Compound: O=C(O)c1ccccc1F [Strain 2-FBz, 2-fluorobenzoic acid]
- growth rate as share of the μmax observed on only glucose ([2]; Example 1): 58%
- Maximum growth rate μmax [2, 13]: 0.25 h⁻¹
- Maximum growth rate μmax [2, 14]: 0.22 h⁻¹
- Maximum growth rate μmax [2, 15]: unable to grow at all
- Maximum growth rate μmax ([2]; Example 1, 30 mM glucose, 20 mM additive, listed as K-2-F-benzoate): no growth
- Maximum growth rate μmax [2, 16]: 0.25 h⁻¹
- Maximum growth rate μmax [2, 17]: 0.19 h⁻¹
- Maximum growth rate μmax [2, 18]: unable to grow at all
- Maximum growth rate μmax ([2]; Example 6 (improved method), 30 mM glucose, 20 mM additive, listed as K-2-F-benzoate): no growth
- growth rate as share of the μmax observed on only glucose ([2]; Example 6): 54%
- qs ([8]; 10 mM 2-FBz, initial about 20 h, Example 1): 0.26 mmol gCDW^−1 h^−1
- qs ([8]; 10 mM 2-FBz, initial about 20 h, Example 6): 0.81 mmol gCDW^−1 h^−1
- growth rate as share of the maximum rate on glucose ([7]; Example 1): 80%
- Maximum growth rate μmax [7, 13]: 0.57 h⁻¹
- Maximum growth rate μmax [7, 14]: 0.53 h⁻¹
- Maximum growth rate μmax [7, 15]: 0.48 h⁻¹
- Maximum growth rate μmax [7, 16]: 0.56 h⁻¹
- Maximum growth rate μmax [7, 17]: 0.52 h⁻¹
- Maximum growth rate μmax [7, 18]: 0.46 h⁻¹
- growth rate as share of the maximum rate on glucose ([7]; Example 6): 53%

Compound: O=C(O)/C=C\C=C(\F)C(=O)O [Strain 2-FMA, 2-fluoro-cis,cis-muconate]
- Maximum growth rate μmax ([3]; 30 mM glucose, 1 mM additive): 1.24 h⁻¹
- Maximum growth rate μmax ([3]; 30 mM glucose, 2.0 mM additive): 1.20 h⁻¹
- Maximum growth rate μmax ([3]; 30 mM glucose, 5 mM additive): 1.08 h⁻¹
- Maximum growth rate μmax ([3]; 30 mM glucose, 10 mM additive): 0.98 h⁻¹
- Maximum growth rate μmax ([3]; 30 mM glucose, 15 mM additive): 0.47 h⁻¹
- Maximum growth rate μmax ([3]; 30 mM glucose, 20 mM additive): no growth
- combined product formation rate qp ([9]; 10 mM 3-FBz): 0.06 mmol gCDW^−1 h^−1
- product formation rate qp ([9]; from 10 mM 2-FBz): 0.06 mmol gCDW^−1 h^−1
- response to 1.0 mM as compared to 1.0 mM ccMA ([6]; 1.0 mM): 6.7 fold
- product formation rate qp ([8]; Example 1): 0.05 mmol gCDW^−1 h^−1
- product formation rate qp ([8]; Example 6): 0.03 mmol gCDW^−1 h^−1
- rate qp ([8]; Example 1): 0.05
- rate qp ([8]; Example 6): 0.09
- reduction of growth rate and maximum biomass concentration ([7]; 15 mM, 30 mM glucose, FIG. 14): 50%
- concentration up to which the growth profile was similar to cultures with glucose only ([7]; 30 mM glucose, FIG. 14): up to 10 mM
- Maximum growth rate μmax [7, 19]: 0.86 h⁻¹
- Maximum growth rate μmax [7, 20]: 1.00 h⁻¹
- Maximum growth rate μmax [7, 21]: 0.86 h⁻¹
- Maximum growth rate μmax [7, 16]: 0.80 h⁻¹
- Maximum growth rate μmax [7, 17]: 0.66 h⁻¹
- Maximum growth rate μmax [7, 18]: no growth

Compound: O=C(O)c1cccc(F)c1 [Strain 3-FBz, 3-fluorobenzoic acid]
- expression strength ([1]; 1.0 mM): close to the basal, uninduced expression
- GFP expression from Pm relative to the one brought about by 1.0 mM 3-mBz [1]: 7%
- GFP expression under Pm(ML1-17) control relative to the expression provided by Pm [1]: 70%
- Maximum growth rate μmax [2, 22]: almost completely impaired
- Maximum growth rate μmax ([2]; Example 1, 30 mM glucose, 5.0 mM additive, listed as K-3-F-benzoate): 0.01 h⁻¹
- Maximum growth rate μmax [2, 13]: no growth
- Maximum growth rate μmax [2, 14]: no growth
- Maximum growth rate μmax [2, 15]: no growth
- Maximum growth rate μmax [2, 21]: almost completely impaired
- Maximum growth rate μmax ([2]; Example 6 (improved method), 30 mM glucose, 5.0 mM additive, listed as K-3-F-benzoate): 0.04 h⁻¹
- Maximum growth rate μmax [2, 16]: no growth
- Maximum growth rate μmax [2, 17]: no growth
- Maximum growth rate μmax [2, 18]: no growth
- concentration up to which no toxic effects were observed ([3]; 30 mM glucose, FIG. 13): ≤ 20000 µM
- highest concentration at which the strain was able to produce biomass ([3]; 30 mM glucose, FIG. 13, strongly reduced rate and maximum biomass concentration): ≤ 50 mM
- Maximum growth rate μmax ([3]; 30 mM glucose, 10 mM additive): 0.45 h⁻¹
- Maximum growth rate μmax ([3]; 30 mM glucose, 20 mM additive): 0.47 h⁻¹
- Maximum growth rate μmax ([3]; 30 mM glucose, 30 mM additive): 0.27 h⁻¹
- Maximum growth rate μmax ([3]; 30 mM glucose, 40 mM additive): 0.24 h⁻¹
- Maximum growth rate μmax ([3]; 30 mM glucose, 50 mM additive): 0.20 h⁻¹
- Maximum growth rate μmax [4, 13]: 0.33 h⁻¹
- Maximum growth rate μmax [4, 14]: 0.32 h⁻¹
- Maximum growth rate μmax [4, 15]: 0.30 h⁻¹
- Maximum growth rate μmax [4, 16]: 0.33 h⁻¹
- Maximum growth rate μmax [4, 17]: 0.32 h⁻¹
- Maximum growth rate μmax [4, 18]: 0.30 h⁻¹
- increase in GFP expression over basal expression ([5]; 1.0 mM): No further increase
- increase of induction compared to the uninduced system [5]: 70%
- induction ([6]; 0.5 mM): most strongly and fully induced
- qs ([8]; 10 mM 3-FBz, Example 1): 0.090 mmol gCDW^−1 h^−1
- qs ([8]; 10 mM 3-FBz, Example 6): 1.01 mmol gCDW^−1 h^−1
- maximum concentration in the presence of which the strain was able to grow ([7]; 30 mM glucose, substantially reduced μmax): 10 mM
- Maximum growth rate μmax [7, 22]: 0.36 h⁻¹
- Maximum growth rate μmax [7, 13]: 0.13 h⁻¹
- Maximum growth rate μmax [7, 14]: no growth
- Maximum growth rate μmax [7, 15]: no growth
- Maximum growth rate μmax [7, 21]: 0.25 h⁻¹
- Maximum growth rate μmax [7, 16]: 0.13 h⁻¹
- Maximum growth rate μmax [7, 17]: no growth

Compound: Oc1cccc(F)c1O [Strain 3-FC, 3-fluorocatechol]
- Maximum growth rate μmax [2, 23]: 0.28 h⁻¹
- Maximum growth rate μmax [2, 24]: 0.17 h⁻¹
- Maximum growth rate μmax [2, 25]: 0.11 h⁻¹
- Maximum growth rate μmax [2, 26]: 0.32 h⁻¹
- Maximum growth rate μmax [2, 19]: 0.31 h⁻¹
- Maximum growth rate μmax [2, 20]: 0.12 h⁻¹
- Maximum growth rate μmax ([3]; 30 mM glucose, 2.0 mM additive): no growth
- Maximum growth rate μmax [4, 23]: 0.61 h⁻¹
- Maximum growth rate μmax [4, 24]: 0.48 h⁻¹
- Maximum growth rate μmax [4, 25]: 0.22 h⁻¹
- Maximum growth rate μmax [4, 26]: 0.74 h⁻¹
- Maximum growth rate μmax [4, 20]: 0.22 h⁻¹
- Maximum growth rate μmax [7, 23]: 0.72 h⁻¹
- Maximum growth rate μmax [7, 24]: 0.65 h⁻¹
- Maximum growth rate μmax [7, 25]: 0.39 h⁻¹
- Maximum growth rate μmax [7, 26]: 0.71 h⁻¹
- Maximum growth rate μmax [7, 19]: 0.68 h⁻¹
- Maximum growth rate μmax [7, 20]: 0.36 h⁻¹
- Maximum growth rate μmax [7, 21]: no growth

Compound: Cc1cccc(C(=O)O)c1 [Strain 3-mBz, 3-methyl benzoate, reference compound]
- GFP expression under Pm(ML1-17) control relative to the expression provided by Pm [1]: 70%
- induction by 1 mM as compared to 5 mM of the inducer ([1]; data not shown): 94%
- increase in GFP expression over basal expression ([5]; 1.0 mM): No further increase
- response ([6]; 1.0 mM): no response at all

Compound: Oc1ccc(F)cc1O [Strain 4-FC, 4-fluorocatechol]
- Maximum growth rate μmax [2, 23]: 0.34 h⁻¹
- Maximum growth rate μmax [2, 24]: 0.32 h⁻¹
- Maximum growth rate μmax [2, 25]: 0.25 h⁻¹
- Maximum growth rate μmax [2, 26]: 0.31 h⁻¹
- Maximum growth rate μmax [2, 19]: 0.26 h⁻¹
- Maximum growth rate μmax [2, 20]: 0.17 h⁻¹
- Maximum growth rate μmax [4, 23]: 0.55 h⁻¹
- Maximum growth rate μmax [4, 24]: 0.54 h⁻¹
- Maximum growth rate μmax [4, 25]: 0.35 h⁻¹
- Maximum growth rate μmax [4, 26]: 0.55 h⁻¹
- Maximum growth rate μmax [4, 19]: 0.50 h⁻¹
- Maximum growth rate μmax [4, 20]: 0.28 h⁻¹
- Maximum growth rate μmax [7, 23]: 0.77 h⁻¹
- Maximum growth rate μmax [7, 24]: 0.64 h⁻¹
- Maximum growth rate μmax [7, 25]: 0.48 h⁻¹
- Maximum growth rate μmax [7, 26]: 0.72 h⁻¹
- Maximum growth rate μmax [7, 19]: 0.52 h⁻¹
- Maximum growth rate μmax [7, 20]: 0.34 h⁻¹
- Maximum growth rate μmax [7, 21]: no growth

Compound: Oc1ccccc1O [catechol, pyrocatechol]
- Maximum growth rate μmax [2, 23]: 0.36 h⁻¹
- Maximum growth rate μmax [2, 24]: 0.33 h⁻¹
- Maximum growth rate μmax [2, 25]: 0.31 h⁻¹
- Maximum growth rate μmax [2, 26]: 0.36 h⁻¹
- Maximum growth rate μmax [2, 19]: 0.33 h⁻¹
- Maximum growth rate μmax [2, 20]: 0.29 h⁻¹
- toxic effect ([2]; up to 2 mM): slightly toxic effect; also recorded: Only a little toxic effect
- Maximum growth rate μmax [4, 25]: 0.86 h⁻¹
- Maximum growth rate μmax [4, 26]: 0.62 h⁻¹
- Maximum growth rate μmax [4, 19]: 0.74 h⁻¹
- Maximum growth rate μmax [4, 20]: 0.81 h⁻¹
- Maximum growth rate μmax [7, 23]: 0.72 h⁻¹
- Maximum growth rate μmax [7, 24]: 0.77 h⁻¹
- Maximum growth rate μmax [7, 25]: 0.78 h⁻¹
- increase of μmax with increasing concentration ([7]; Example 1, up to 2 mM): up to 30%
- Maximum growth rate μmax [7, 26]: 0.69 h⁻¹
- Maximum growth rate μmax [7, 19]: 0.71 h⁻¹
- Maximum growth rate μmax [7, 20]: 0.68 h⁻¹

Compound: P14g: constitutive promoter, SEQ ID NO: 50 (DNA GCCCATTGACAAGGCTCTCGCGGCCAGGTATAATTGCACGA; expressed or natural sequence) [Strain P14g, reference compound]
- transcription initiation rate: quotient of OD630 nm-normalized fluorescence with the one of Ptac [10]: 2.51
